Assay results reported in patent US10239923B2, “Specific amyloid beta binding peptides and the use of same for treating and diagnosing alzheimer's dementia” (Forschungszentrum Juelich GmbH, priority 2015, dated 2019).
Square brackets hold non-standard residues; d marks the D form. Peptide text beside a SMILES is read from it.

Biological target: T1, Aβ1-42 monomers versus Aβ1-42 oligomers and fibrils (biotinylated, D-enantiomeric, immobilized) (Homo sapiens, UniProt P05067)
T1 construct: biotinylated, D-enantiomeric Aβ1-42 monomers
Test: Monoclonal phage ELISA
Type: binding
From the text: The specificity of the peptide results from the difference in % of the absorption values for the target molecule or the bait (for example A beta monomer) and the normalized absorption values for the competitors (for example A beta oligomers and fibrils) in the monoclonal phage ELISA.
The absorption values then constitute the affinity of individual phage clones for a particular immobilized A beta species. Here, the specificity is not dependent on the strength of the affinity, but instead only on the difference of the affinities between the species. […] The terms “competitors” and “target molecule” or “bait” are defined as specified below.
A method for normalizing the obtained values should therefore be performed. From all absorption values of the individual phage clone in the monoclonal phage ELISA, the values of the phage antibodies tested for cross-reaction can be used as background. This occurs in accordance with the previously immobilized species. The signal values of the phage antibody from the reaction trays with immobilized Aβ1-42 oligomers for this purpose can be removed from the signal values of the individual phage clone from the reaction trays with immobilized Aβ1-42 oligomers. A similar process is then carried out for Aβ1-42 monomers. In this way, a possible background signal of the phage antibody can initially be calculated from the signals of the individual phage clone. […] Only in this way is an equal interpretation of the results particularly in respect of the assessment of the specificity of the individual phage clone possible (see FIG. 2).
The affinity of individual phage clones with respect to the target molecule and the competitors was examined by means of ELISA. For this purpose, all three species were immobilized in biotinylated form on a polystyrene surface at streptavidin bound thereon. Since, during the panning rounds, oligomers and fibrils were added at the same time as competitors, these two species were immobilized in the monoclonal phage ELISA, likewise mixed. […] The streptavidin-coated microtiter plates were pre-washed as specified by the manufacturer. […] For immobilization, 100 μl were used per reaction tray and were incubated for 15 minutes at room temperature. After having washed the entire plate(s) twice with 150 μl 1×TBS per reaction tray, a blocking step with 150 μl 1×TBS/0.1% (v/v) Tween-20/1% (w/v) BSA was performed for an hour at room temperature. Three washing steps with 150 μl 1×TBS/0.1% (v/v) Tween-20 then followed per reaction tray. The amplified individual phage clones were mixed 1:1 with 1× TBS/1% (w/v) BSA. The antibody 6E10 was diluted 1:10,000 in 1×TBS/0.1% (v/v) Tween-20. […] After washing five times with 150 μl 1×TBS/0.1% (v/v) Tween-20 per reaction tray, 200 μl 1×TBS/0.1% (v/v) Tween-20 were placed in each reaction tray, and the plate(s) incubated for one hour at room temperature. The solutions were removed and replaced as follows: In all reaction trays that had been incubated previously with individual phage clone dilutions or the batch without phages, 100 μl of a phage antibody diluted 1:5,000 in 1×TBS/0.1% (v/v) Tween-20 were now added. The enzyme horseradish peroxidase (HRP) was coupled to this antibody and later served for the conversion of a substrate (TMB). […] At the same time, 100 μl of a second antibody diluted 1:1,000 in 1×TBS/0.1% (v/v) Tween-20 were now added to all reaction trays that had been previously incubated with the dilution of the 6E10 antibody, said second antibody being able to identify and bind to the 6E10 antibody originating from mice. This antibody is also HRP-coupled and thus allows a quantification of the binding of the first antibody to the immobilized target molecules or the plastics surface of the reaction tray. After one hour of incubation at room temperature, the plate(s) was/were washed 10 times with 150 μl 1×TBS/0.1% (v/v) Tween-20 per reaction tray. The signal was detected by adding the substrate 3,3′,5,5′-tetramethylbenzidine (TMB). […]

T1 sequence (P05067 672-713): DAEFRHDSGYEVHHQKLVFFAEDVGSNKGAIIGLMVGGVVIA

Difference in signal strength between Aβ1-42 monomers (100%) and Aβ1-42 oligomers and fibrils (individual phage clones, species immobilized at 320 nM, absorption at 450 nm normalized with 6E10 control, higher = more monomer-specific): 71.989%
Compound: CSCC[C@@H](NC(=O)[C@@H](Cc1c[nH]cn1)NC(=O)[C@@H](Cc1ccc(O)cc1)NC(=O)[C@@H](CO)NC(=O)[C@H](NC(=O)[C@@H](CC(C)C)NC(=O)[C@@H](Cc1ccc(O)cc1)NC(=O)[C@@H](CO)NC(=O)[C@H](N)Cc1ccc(O)cc1)[C@H](C)O)C(=O)N[C@@H](C(=O)N[C@H](Cc1c[nH]c2ccccc12)C(=O)N[C@H](CCCNC(=N)N)C(N)=O)C(C)C [Mosd1] (H-[dY][dS][dY][dL][dT][dS][dY][dH][dM][dV][dW][dR]-NH2)
absorption values (signal strength) for monomeric Aβ1-42 (individual phage clone, absorption at 450 nm): highest absorption values for monomeric Aβ1-42 of all tested clones
binding preference for monomeric Aβ1-42 over Aβ1-42 oligomers and fibrils or plastics surface (normalized absorption values at 450 nm): greatest difference in the absorption values for monomeric Aβ1-42 and oligomeric or fibrillar Aβ1-42
